28 molecules from patent US20240132450A1, “MODULATORS OF G PROTEIN-COUPLED RECEPTOR 88” (ACADIA Pharmaceuticals Inc., priority 2020, published 2024) can be followed below.

Series [1] is described as follows: Hepatocyte stability (mouse). The class given is in vitro ADME. Conditions: test compound 3 μM, 60 min; for hepatocyte CLint at 3 μM: mouse, cryopreserved pooled hepatocytes in suspension, read-out: Mouse heps Clint; for Mouse heps Clint: mouse cryopreserved hepatocytes. On the procedure: (iii) Hepatocyte Stability (Human, Mouse, Rat or Dog)
Test compound (3 μM) is incubated with cryopreserved hepatocytes in suspension. Samples are removed at 6 time points over the course of a 60 min experiment and test compound is analysed by LC-MS/MS. An intrinsic clearance value (CLint) with standard error and half-life (t %) are calculated. Cryopreserved pooled hepatocytes are stored in liquid nitrogen prior to use. […] The final incubation volume is 500 μL. A control incubation is included for each compound tested where lysed cells are added instead of viable cells. Two control compounds are included with each species.
The reactions are stopped by transferring 50 μL of incubate to 100 μL methanol containing internal standard at the appropriate time points. The control (lysed cells) is incubated for 60 min only. The termination plates are centrifuged at 2500 rpm at 4° C. for 30 min to precipitate the protein. Following protein precipitation, the sample supernatants are combined in cassettes of up to 4 compounds and analysed using generic LC-MS/MS conditions. From a plot of In peak area ratio (compound peak area/internal standard peak area) against time, the gradient of the line is determined. Subsequently, half-life (t %) and intrinsic clearance (CLint) are calculated using the equations below: […]

A further series addresses hGPR88 receptor (Homo sapiens, UniProt Q9GZN0). The series can be described thus: hGPR88-HEK cAMP accumulation assay. The settings on record: HEK-293 cells expressing human recombinant GPR88, forskolin 200 nM, High/Medium/Low bands. On the technique in general: cAMP levels reflect the balance of adenylyl cyclase and phosphodiesterase activity.
The target of series [2] is T1, dopamine uptake transporter (rat DAT) (Rattus norvegicus, UniProt P23977).
T1 construct: is determined in rat striatum synaptosomes following [^3H]dopamine scintillation counting; from tissue; host or cells: rat striatum synaptosomes
The series can be described thus: Dopamine transporter uptake assay. The class given is biochemical. Conditions: rat striatum synaptosomes, [3H]dopamine.

The mark [3] stands for this setting: read-out: GRP88 agonist activity (EC50).

Read-outs that look alike come from different tables or passages of the source.

T1 sequence (P23977 whole entry): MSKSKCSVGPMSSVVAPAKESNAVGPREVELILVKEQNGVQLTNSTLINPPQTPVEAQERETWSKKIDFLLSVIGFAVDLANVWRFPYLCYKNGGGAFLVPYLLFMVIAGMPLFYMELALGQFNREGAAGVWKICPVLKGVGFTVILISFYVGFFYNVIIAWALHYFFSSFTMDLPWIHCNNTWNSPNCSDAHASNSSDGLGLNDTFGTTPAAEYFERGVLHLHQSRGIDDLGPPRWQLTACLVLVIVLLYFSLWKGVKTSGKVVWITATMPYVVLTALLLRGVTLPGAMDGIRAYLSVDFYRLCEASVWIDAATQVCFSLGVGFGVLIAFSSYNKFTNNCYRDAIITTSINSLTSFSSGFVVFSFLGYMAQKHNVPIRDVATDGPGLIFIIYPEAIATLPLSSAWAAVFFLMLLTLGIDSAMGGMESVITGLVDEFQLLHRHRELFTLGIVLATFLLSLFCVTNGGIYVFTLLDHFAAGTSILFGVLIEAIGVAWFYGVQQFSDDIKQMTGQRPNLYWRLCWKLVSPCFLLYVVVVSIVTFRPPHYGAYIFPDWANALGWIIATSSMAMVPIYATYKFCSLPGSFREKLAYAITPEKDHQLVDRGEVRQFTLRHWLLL
Sequence of hGPR88 receptor (Q9GZN0 whole entry): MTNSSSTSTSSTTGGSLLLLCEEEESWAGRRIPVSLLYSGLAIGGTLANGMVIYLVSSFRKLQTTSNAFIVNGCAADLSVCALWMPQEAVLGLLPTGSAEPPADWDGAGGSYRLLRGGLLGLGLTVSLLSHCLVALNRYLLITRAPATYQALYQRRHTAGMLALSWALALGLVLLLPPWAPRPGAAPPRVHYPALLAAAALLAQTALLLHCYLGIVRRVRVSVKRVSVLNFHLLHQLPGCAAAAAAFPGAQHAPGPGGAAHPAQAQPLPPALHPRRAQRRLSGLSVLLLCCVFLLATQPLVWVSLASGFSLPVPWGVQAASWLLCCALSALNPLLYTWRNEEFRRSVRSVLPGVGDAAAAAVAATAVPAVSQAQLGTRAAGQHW
Method for hGPR88 receptor: Biological Assay 1: hGPR88-HEK cAMP Accumulation Assay
Cryopreserved vials of HEK-293 cells expressing human recombinant GPR88 receptor are re-suspended in KRH assay buffer and 5 μl of cell solution is suspended in test wells at a seeding density of 2500±500 cells per well using the multidrop to provide a final reaction volume of 10 μl containing 0.5% DMSO. Assay plate is incubated for 30 min at room temperature and the reaction is terminated by addition of 5 μl of each of the cAMP detection reagents of the cAMP Gi kit (Cisbio Bioassays, 62AM9PEJ), diluted in cell lysis buffer, to each well using the multidrop in the following order: first the cAMP-d2 conjugate, then the anti-cAMP cryptate conjugate. […] Raw counts were converted to cAMP concentrations via a standard curve before EC50 and Emax determination. Data is expressed as % decrease in forskolin stimulated cAMP compared to cells treated with vehicle alone in the same buffer and on the same plate.

The term EC50 denotes the midpoint of the concentration-response curve. For `CCCc1ccc(C23CC(NC(=O)C4CC4c4ccccn4)(C2)C3)cc1` (racemic) [Example 8, (rac-trans)-N-(3-(4-propylphenyl)bicyclo[1.1.1]pentan-1-yl)-2-(pyridin-2-yl)cyclopropane-1-carboxamide], the hepatocyte CLint at 3 μM in series [1] came to 55 µL/min/1e6 cells. Further, the EC50 at hGPR88 receptor (GRP88 agonist activity (EC50)) is under 1 µM. On to `COCc1ccc(-c2ccc(NC(=O)C3CC3c3ccccn3)cc2)cc1` (racemic) [Example 18, N-(4′-(methoxymethyl)-[1,1′-biphenyl]-4-yl)-2-(pyridin-2-yl)cyclopropane-1-carboxamide], for which the “Inhibition of dopamine uptake transporter (% inhibition at 10 μM compound)” value (“Inhibition … (% inhibition at 10 μM compound)” below) in series [2] (10 µM) is given as 0 % inhibition.

With `CCCc1ccc(C23CC(NC(=O)C4CC4c4ccccn4)(C2)C3)cc1` (racemic) [Example 35, (rac-trans)-N-(3-(4-propylphenyl)bicyclo[1.1.1]pentan-1-yl)-2-(pyridin-2-yl)cyclopropane-1-carboxamide], the “Mouse heps Clint” value in series [1] is on record as 49 μL/min/10^6 cells. Moreover, the EC50 at hGPR88 receptor (GRP88 agonist activity (EC50)) is under 1 µM. `CCOc1ccc(-c2ccc(NC(=O)C3CC3c3ccccn3)cc2)cn1` (racemic) [Example 36, (rac-trans)-N-(4-(6-ethoxypyridin-3-yl)phenyl)-2-(pyridin-2-yl)cyclopropane-1-carboxamide]: the “Mouse heps Clint” value in series [1] stood at 80 μL/min/10^6 cells. The 50% effective concentration (EC50) on hGPR88 receptor (GRP88 agonist activity (EC50)) was in the range of 1 to 5 µM.

On to `COCc1ccc(-c2ccc(NC(=O)C3CC3c3ccccn3)nc2)cc1` (racemic) [Example 45, (rac-trans)-N-(5-(4-(methoxymethyl)phenyl)pyridin-2-yl)-2-(pyridin-2-yl)cyclopropane-1-carboxamide], for which, in series [2], the “Inhibition … (% inhibition at 10 μM compound)” value stood at 28 % inhibition. Turning to `CCOc1ccc(-c2ccc(NC(=O)C3CC3c3ccccn3)cc2)cn1` (racemic) [Example 75, (rac-trans)-N-(4-(6-ethoxypyridin-3-yl)phenyl)-2-(pyridin-2-yl)cyclopropane-1-carboxamide], in series [2] (10 µM), the “Inhibition … (% inhibition at 10 μM compound)” value came out at 5 % inhibition. For the same molecule, the EC50 at hGPR88 receptor (setting [3]) was 1 to 5 µM. As to `COCc1ccc(-c2ccc(NC(=O)C3CC3c3ccccn3)nc2)cc1` (racemic) [Example 121, (rac-trans)-N-(5-(4-(methoxymethyl)phenyl)pyridin-2-yl)-2-(pyridin-2-yl)cyclopropane-1-carboxamide], in series [1], the hepatocyte CLint at 3 μM is 30 µL/min/1e6 cells. Further, the EC50 on hGPR88 receptor (setting [3]) lay within 1 to 5 µM.

For `COCc1ccc(-c2ccc(NC(=O)C3CC3c3ccccn3)cc2)cc1` (single isomer, unassigned) [Example 18, N-(4′-(methoxymethyl)-[1,1′-biphenyl]-4-yl)-2-(pyridin-2-yl)cyclopropane-1-carboxamide], the hepatocyte CLint at 3 μM in series [1] was 70 µL/min/1e6 cells. At hGPR88 receptor (GRP88 agonist activity (EC50)), the EC50 is under 1 µM.

As to `O=C(Nc1ccc(-c2ccc(CN3CCOCC3)cc2)cc1)C1CC1c1ccccn1` (single isomer, unassigned) [Example 78, (1R*,2R*)-N-(4′-(morpholinomethyl)-[1,1′-biphenyl]-4-yl)-2-(pyridin-2-yl)cyclopropane-1-carboxamide], the “Inhibition … (% inhibition at 10 μM compound)” value in series [2] is on record as 17 % inhibition. Regarding `COCc1ccc(-c2ccc(NC(=O)C(C)(C)Oc3ccc(Cl)cc3)cc2)cc1` [Example 3], the hepatocyte CLint at 3 μM in series [1] is 30 µL/min/1e6 cells. Further, the EC50 at hGPR88 receptor (GRP88 agonist activity (EC50)) was under 1 µM.

`COCc1ccc(-c2ccc(NC(=O)C(C)(C)Oc3ccccc3)cc2)cc1` [Example 4, N-(4′-(methoxymethyl)-[1,1′-biphenyl]-4-yl)-2-methyl-2-phenoxypropanamide]: in series [1], the hepatocyte CLint at 3 μM is 51 µL/min/1e6 cells. Besides, the concentration giving a half-maximal response (EC50) on hGPR88 receptor (GRP88 agonist activity (EC50)) is under 1 µM. For `COCc1ccc(-c2ccc(NC(=O)C(C)(C)Oc3ccccn3)cc2)cc1` [Example 7, N-(4′-(methoxymethyl)-[1,1′-biphenyl]-4-yl)-2-methyl-2-(pyridin-2-yloxy)propanamide], the hepatocyte CLint at 3 μM in series [1] amounted to 46 µL/min/1e6 cells. Further, the 50% effective concentration (EC50) at hGPR88 receptor (GRP88 agonist activity (EC50)) lay within 1 to 5 µM. `CCCc1ccc(C23CC(NC(=O)C(C)(C)Oc4ccc(F)cc4)(C2)C3)cc1` [Example 9, 2-(4-fluorophenoxy)-2-methyl-N-(3-(4-propylphenyl)bicyclo[1.1.1]pentan-1-yl)propenamide]: the hepatocyte CLint at 3 μM in series [1] was 39 µL/min/1e6 cells. In addition, on hGPR88 receptor (GRP88 agonist activity (EC50)), the EC50 lay in the range of 1 to 5 µM. As to `COCc1ccc(-c2ccc(N(C)C(=O)C(C)(C)Oc3ccc(F)cc3)cc2)cc1` [Example 13, 2-(4-fluorophenoxy)-N-(4′-(methoxymethyl)-[1,1′-biphenyl]-4-yl)-N,2-dimethylpropanamide], in series [1], the hepatocyte CLint at 3 μM was 90 µL/min/1e6 cells. Besides, at hGPR88 receptor (GRP88 agonist activity (EC50)), the half-maximal effective concentration (EC50) fell in the range of 1 to 5 µM. For the molecule `CN(C)Cc1ccc(-c2ccc(NC(=O)C(C)(C)Oc3ccc(F)cc3)cc2)cc1` [Example 17, N-(4′-((dimethylamino)methyl)-[1,1′-biphenyl]-4-yl)-2-(4-fluorophenoxy)-2-methylpropanamide], the hepatocyte CLint at 3 μM in series [1] is 37 µL/min/1e6 cells. Also, the EC50 at hGPR88 receptor (GRP88 agonist activity (EC50)) was 1 to 5 µM. In the same order, the values of `CC(C)(Oc1ccc(F)cc1)C(=O)Nc1ccc(-c2ccc(CN3CCOCC3)cc2)cc1` [Example 25, 2-(4-fluorophenoxy)-2-methyl-N-(4′-(morpholinomethyl)-[1,1′-biphenyl]-4-yl)propenamide] are 41 µL/min/1e6 cells and under 1 µM. `COCc1ccc(-c2ccc3c(c2)CCN3C(=O)C(C)(C)Oc2ccc(F)cc2)cc1` [Example 32, 2-(4-fluorophenoxy)-1-(5-(4-(methoxymethyl)phenyl)indolin-1-yl)-2-methylpropan-1-one]: the hepatocyte CLint at 3 μM in series [1] was determined as 65 µL/min/1e6 cells. Also, the EC50 on hGPR88 receptor (GRP88 agonist activity (EC50)) is 1 to 5 µM. Turning to `COCc1ccc(-c2ccc(NC(=O)C3(Oc4ccc(F)cc4)CC3)cc2)cc1` [Example 53, 1-(4-fluorophenoxy)-N-(4′-(methoxymethyl)-[1,1′-biphenyl]-4-yl)cyclopropane-1-carboxamide], the hepatocyte CLint at 3 μM in series [1] amounted to 71 µL/min/1e6 cells. Moreover, the EC50 on hGPR88 receptor (GRP88 agonist activity (EC50)) is under 1 µM.

For `COCc1ccc(-c2ccc(NC(=O)C(C)(C)Oc3ccc(C#N)cc3)cc2)cc1` [Example 68, 2-(4-cyanophenoxy)-N-(4′-(methoxymethyl)-[1,1′-biphenyl]-4-yl)-2-methylpropanamide], in series [1], the hepatocyte CLint at 3 μM is 37 µL/min/1e6 cells. The EC50 on hGPR88 receptor (GRP88 agonist activity (EC50)) is under 1 µM.

`CCOc1ccc(OC(C)(C)C(=O)Nc2ccc(-c3ccc(COC)cc3)cc2)cc1` [Example 70, 2-(4-ethoxyphenoxy)-N-(4′-(methoxymethyl)-[1,1′-biphenyl]-4-yl)-2-methylpropanamide]: in series [1], the hepatocyte CLint at 3 μM came to 74 µL/min/1e6 cells. For the same molecule, the 50% effective concentration (EC50) at hGPR88 receptor (GRP88 agonist activity (EC50)) is under 1 µM.

`CC(C)Oc1ccc(-c2ccc(NC(=O)C(C)(C)Oc3ccc(F)cc3)cc2)cn1` [Example 92, 2-(4-fluorophenoxy)-N-(4-(6-isopropoxypyridin-3-yl)phenyl)-2-methylpropanamide]: the hepatocyte CLint at 3 μM in series [1] amounted to 47 µL/min/1e6 cells. Moreover, the EC50 on hGPR88 receptor (GRP88 agonist activity (EC50)) was under 1 µM. Consider `CC(C)(Oc1ccc(F)cc1)C(=O)Nc1ccc(-c2ccc(COC3CC3)cc2)cc1` [Example 132, N-(4′-(cyclopropoxymethyl)-[1,1′-biphenyl]-4-yl)-2-(4-fluorophenoxy)-2-methylpropanamide], for which, at hGPR88 receptor (GRP88 agonist activity (EC50)), the EC50 lay within 1 to 5 µM. On to `COCc1ccc(-c2ccc(NC(=O)C(C)(C)Oc3ccc(F)cn3)cc2)cc1` [Example 138, 2-((5-fluoropyridin-2-yl)oxy)-N-(4′-(methoxymethyl)-[1,1′-biphenyl]-4-yl)-2-methylpropanamide], for which, on hGPR88 receptor (GRP88 agonist activity (EC50)), the EC50 lay in the range of 1 to 5 µM. For the molecule `COCc1ccc(-c2ccc(N(CCC#N)C(=O)C(C)(C)Oc3ccc(F)cc3)cc2)cc1` [Example 139, N-(2-cyanoethyl)-2-(4-fluorophenoxy)-N-(4′-(methoxymethyl)-[1,1′-biphenyl]-4-yl)-2-methylpropanamide], the EC50 at hGPR88 receptor (GRP88 agonist activity (EC50)) is over 5 µM.

In the case of `CCOc1ccc(-c2ccc(NC(=O)C(C)(C)Oc3ccccn3)cc2)cn1` [Example 140, N-(4-(6-ethoxypyridin-3-yl)phenyl)-2-methyl-2-(pyridin-2-yloxy)propanamide], at hGPR88 receptor (GRP88 agonist activity (EC50)), the EC50 lay in the range of 1 to 5 µM.

As for `COCc1ccc(-c2ccc(N(CC(C)(C)O)C(=O)C3CC3c3ccccn3)cc2)cc1` (stereo not shown) [Example 141, N-(2-hydroxy-2-methylpropyl)-N-(4′-(methoxymethyl)-[1,1′-biphenyl]-4-yl)-2-(pyridin-2-yl)cyclopropane-1-carboxamide], on hGPR88 receptor (GRP88 agonist activity (EC50)), the EC50 is over 5 µM. `COCc1ccc(-c2ccc(N(CC(C)(C)O)C(=O)C3CC3c3ccccn3)cc2)cc1` (stereo not shown) [Example 142, N-(2-hydroxy-2-methylpropyl)-N-(4′-(methoxymethyl)-[1,1′-biphenyl]-4-yl)-2-(pyridin-2-yl)cyclopropane-1-carboxamide]: the EC50 at hGPR88 receptor (setting [3]) was over 5 µM. Consider `CCCc1ccc(-c2ccc(N(C[C@@H](N)[C@@H](C)CC)C(=O)[C@@H]3C[C@H]3c3ccccn3)cc2)cc1` [Literature comparative 2, 2-PCCA, reference compound], for which the “Inhibition … (% inhibition at 10 μM compound)” value in series [2] turned out to be 90 % inhibition.
